Measured values reported in PubChem BioAssay (NCI).
Values joined by “and” are separate entries in the source; they are usually repeats but may differ in a detail not shown here. Identical values can stand only once.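 In this assay, cells in 96-well plates receive the compound at five concentrations for 48 hours. Endpoints are linearly interpolated between the surrounding concentrations. GI50: concentration for 50% inhibition of growth. Definition used: TGI = concentration required for complete inhibition of growth.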

Experiments:
Assay in all cases: DTP human tumour cell line panel, 48 h
SF-539 CNS = tested on: SF-539 CNS
COLO 205 colon = tested on: COLO 205 colon
BT-549 breast = tested on: BT-549 breast
PC-3 prostate = tested on: PC-3 prostate
M14 melanoma = tested on: M14 melanoma
IGROV1 ovarian = tested on: IGROV1 ovarian
HS 578T breast = tested on: HS 578T breast
SR leukemia = tested on: SR leukemia
SF-268 CNS = tested on: SF-268 CNS
K-562 leukemia = tested on: K-562 leukemia

Row | Compound | TGI (SF-539 CNS) | TGI (COLO 205 colon) | TGI (BT-549 breast) | TGI (PC-3 prostate) | TGI (M14 melanoma) | TGI (IGROV1 ovarian) | TGI (HS 578T breast) | TGI (SR leukemia) | TGI (SF-268 CNS) | TGI (K-562 leukemia) | GI50 (SF-539 CNS) | GI50 (COLO 205 colon) | GI50 (BT-549 breast) | GI50 (PC-3 prostate) | GI50 (M14 melanoma) | GI50 (IGROV1 ovarian) | GI50 (HS 578T breast) | GI50 (SR leukemia) | GI50 (SF-268 CNS) | GI50 (K-562 leukemia)
1 | BrCC[N+]12CCCN1CCC2 | 32.9 µM | 10.5 µM | 31.3 µM | 31.2 µM | 24.7 µM | 51.1 µM | 26.9 µM | 6.8 µM | 58.9 µM | 8.46 µM |  |  |  |  |  |  |  |  |  | 
2 | CO[C@H]1/C=C/C=C/C=C/C[C@H](OC(=O)[C@@H](C)NC(=O)C2CCCCC2)[C@H](C)[C@@H](O)/C(C)=C\CCC2=CC(=O)C=C(NC(=O)C1)C2=O | 0.519 µM | 0.736 µM | 1.38 µM | 0.896 µM | 0.746 µM | 1.28 µM | 0.59 µM | > 50 µM | 1.01 µM | > 50 µM | 0.128 µM | 0.116 µM | 0.172 µM | 0.128 µM | 0.119 µM | 0.0941 µM | 0.119 µM | 0.0561 µM | 0.123 µM | 0.177 µM
3 | NS(=O)(=O)c1ccc(N=Nc2cc3ccccc3c(C(=O)O)c2O)cc1 | > 100 µM | > 100 µM | > 100 µM | > 90.3 µM | > 100 µM | > 100 µM | > 100 µM | > 84.6 µM | > 85.6 µM | > 100 µM |  |  |  |  |  |  |  |  |  | 
4 | Nc1ccc(Sc2ccc3c4c2cccc4c(=O)n2c4ccccc4nc32)cc1 | 15.6 µM | 27.2 µM | 56.3 µM | 21.7 µM | 27.9 µM | 32 µM | > 100 µM | 33.1 µM | 80.2 µM | > 100 µM | 3.11 µM | 7.24 µM | 6.06 µM | 2.67 µM | 4.51 µM | 3.9 µM | 10.1 µM | 1.6 µM | 5.42 µM | 4.93 µM
5 | C=C(C)[C@@H]1CC[C@@H]2C(=CC[C@]3(C)C([C@H](C)CC/C=C(/C)C(=O)O)CC[C@@]23C)[C@@]1(C)CCC(=O)O (some centres not stated) | 89 µM | 39.9 µM | 51 µM | 65.9 µM | > 100 µM | 88.8 µM | > 100 µM | 49.4 µM | > 100 µM | > 100 µM |  |  |  |  |  |  |  |  |  | 
6 | COc1cc(C2CC(c3cc(Cl)c(C)cc3O)=NN2c2ccc(S(N)(=O)=O)cc2)cc(OC)c1OC (configuration not stated) | 3.37 µM | 3.09 µM | 7.01 µM | 8.94 µM | 4.29 µM | 5.54 µM | 7.02 µM | 7.35 µM | 34.2 µM | 30.9 µM | 1.77 µM | 1.72 µM | 2.6 µM | 2.27 µM | 2.02 µM | 2.23 µM | 2.21 µM | 2.47 µM | 4.29 µM | 3.22 µM
7 | CCN(CC)c1ccc(/C=C2/NC(=O)NC2=O)cc1 | 53.6 µM | 23.6 µM | > 100 µM | > 100 µM | 38.9 µM | > 27.6 µM | > 28 µM | > 100 µM | > 35.8 µM | > 100 µM | 5.57 µM | 4.63 µM | 7.49 µM | 12.1 µM | 3.3 µM | 4.82 µM | 1.23 µM | 0.605 µM | 4.39 µM | 0.671 µM
8 | COC(=O)C12CC(NC(=O)c3csc([C@@H](C[C@H](C(C)C)N(C)C(=O)[C@@H](NC(=O)[C@H]4CCCCN4C)C(C)C)OC(C)=O)n3)(C1)C2 | 0.0267 µM | 0.0162 µM | 0.0939 µM and 0.33 µM | > 33.3 µM | > 33.3 µM | > 33.3 µM | > 33.3 µM |  | > 33.3 µM | > 33.3 µM | 0.00226 µM | 0.00141 µM | 0.00439 µM and 0.00341 µM | 0.00639 µM and 0.00333 µM | 0.00176 µM and 0.00333 µM | 0.00237 µM and 0.00333 µM | 0.00333 µM | 0.000745 µM | 0.00488 µM and 0.00388 µM | 0.000513 µM and 0.00333 µM
9 | CC[C@@]1(O)C(=O)N(CCN(C)C)Cc2c1cc1n(c2=O)Cc2cc3ccccc3nc2-1 | 13.1 µM | > 100 µM | > 100 µM | > 100 µM | > 100 µM | > 100 µM | > 100 µM | > 100 µM | > 100 µM | > 100 µM | 3.77 µM | > 91.6 µM | 42.5 µM | 41.3 µM | 9.31 µM | 26 µM | > 100 µM | 6.24 µM | 3.59 µM | > 41.7 µM
10 | CCCCCCCC(=O)O[C@H]1[C@H]2[C@@H](CC1(C)C)C(=O)[C@]13O[C@H]1C(=O)[C@]1(CO1)[C@]23C | 12.7 µM and 21.3 µM | 5.18 µM and 4.07 µM | 28.8 µM | 30.8 µM | 11.3 µM | 36.6 µM and 11.4 µM | > 100 µM | > 38.7 µM | 23.1 µM and 16.2 µM | 5.13 µM and 5.3 µM | 7.72 µM | 2.17 µM |  |  |  | 20.9 µM |  |  | 8.17 µM | 1.52 µM
11 | O=C(O)CNCc1c2ccccc2nc2ccccc12 | 87.2 µM | > 100 µM | > 100 µM | > 100 µM | > 100 µM | > 100 µM | > 100 µM | > 70.5 µM | > 100 µM | > 82.7 µM |  |  |  |  |  |  |  |  |  | 
12 | COc1cc2cc(Oc3ccc(NC(=O)Nc4cc(C(F)(F)F)cc(C(F)(F)F)c4)cc3)c(C)nc2cc1OCCN1CCCCC1 | 3.03 µM | 3.62 µM | 3.41 µM | 2.85 µM | 3.16 µM | 2.79 µM | 4.67 µM | 5.79 µM | 3.37 µM | 3.31 µM | 1.65 µM | 1.89 µM | 1.8 µM | 1.49 µM | 1.68 µM | 1.35 µM | 1.93 µM | 1.75 µM | 1.69 µM | 1.5 µM
13 | Cc1cccc(Cc2cnc(NC(=O)/C=C/c3ccco3)s2)c1 | 0.0752 µM | 1.23 µM | > 100 µM | > 100 µM | > 100 µM | > 100 µM | > 100 µM | > 100 µM | > 100 µM | > 100 µM | 0.026 µM | 0.0438 µM | 0.174 µM | 0.04 µM | 0.031 µM | 0.0712 µM | 0.0313 µM | 0.0342 µM | 0.181 µM | 0.0347 µM
14 | COc1cc2cc(C(=O)N3C[C@H](CCl)c4c3cc(O)c3ccccc43)[nH]c2c(OC)c1OC | 0.192 µM | 1.8 µM and 0.483 µM | 1.56 µM and 0.46 µM | 2.27 µM and 18.9 µM |  |  | 0.652 µM | 0.0672 µM | 0.563 µM and 4.99 µM |  |  | 0.118 µM | 0.0312 µM | 0.0355 µM | 0.0268 µM |  |  |  | 0.0169 µM | 0.046 µM
